Measurements: patent US20260027118A1, “COMPOSITIONS USEFUL FOR MODULATING SPLICING” (Skyhawk Therapeutics, Inc., priority 2022, published 2026)

Test system: ATXN3-HiBiT protein
Test: ATXN3 HiBiT assay (Nano Glo HiBiT luminescence)
Format: cell-based
Conditions: Kelly-ATXN3-HiBiT cells, luminescence read out 48 h after addition of the compound
Excerpt: To monitor ATXN3 protein levels by luminescence, a Kelly-ATXN3-HiBiT cell line with homozygous knock-in of HiBiT at the C-terminus of the endogenous ATXN3 gene was used (knock-in of the HiBiT-tag coding sequence SEQ ID NO. 14: 5′[…]3′ into exon 11 of ATXN3 -position 1114 of ATXN3 RefSeq NM_004993.6). Manipulations of the Kelly-ATXN3-HiBiT cell line that result in downregulation of the ATXN3-HiBiT protein (through modulation of ATXN3-HiBiT pre-mRNA splicing) can be followed by monitoring the luminescence signal of the HiBiT tag using the Nano Glo HiBiT Lytic Detection System (Promega, #N3050). Kelly-ATXN3-HiBiT cells were maintained in RPMI 1640 w/Glutamax (Gibco, #61870010), 10% FBS (Sigma Aldrich, #F8687), 1% Penicillin/Streptomycin (Gibco, #15140-122) at 37° C., 5% CO2. To assess HiBiT-luminescence signal upon compound treatment, 2000 Kelly-ATXN3-HiBiT cells were seeded per well in 384 plate format. Compounds were added 24 h after seeding. ATXN3-HiBiT-luminescence signal was read out 48 h after addition of the compound using the Nano Glo HiBiT Lytic Detection System (Promega, #N3050) according to the manufacturer's instructions. To control for cell viability, an identically prepared sister plate was read out with the CellTiter-Glo® 2.0 Assay (Promega, #G9243) according to the manufacturer's instructions. Fold changes of ATXN3-HiBiT-luminescence and of CellTiter-Glo viability signals were calculated relative to a DMSO control condition.

Compound	EC50 [nM]
2-[(R)-2-amino-3-methoxy(1,1- ^2H2)propyl]-5-chloro-3-(1- propynyl)-7-thenylamino-1-oxa-4- azaindene [Compound 44]	0.01 to 100
CC#Cc1c(C[C@@H](N)[C@H](C)F)oc2c(NCc3ccccc3F)cc(Cl)nc12 [Compound 13, 2-[(2R,3S)-2-amino-3-fluorobutyl]-5-chloro-7-{[(o-fluorophenyl)methyl]amino}-3-(1-propynyl)-1-oxa-4-azaindene]	501 to 5000
CC#Cc1c(C[C@@H](N)[C@H](C)F)oc2c(NCc3c(F)cccc3F)cc(Cl)nc12 [Compound 14, 2-[(2R,3S)-2-amino-3-fluorobutyl]-5-chloro-7-{[(2,6-difluorophenyl)methyl]amino}-3-(1-propynyl)-1-oxa-4-azaindene]	10000 to 40000
CC#Cc1c(C[C@@H](N)CCOC(F)F)oc2c(NCc3cccs3)cc(Cl)nc12 [Compound 31, 2-[(S)-2-amino-4-difluoromethoxybutyl]-5-chloro-3-(1-propynyl)-7-thenylamino-1-oxa-4-azaindene]	0.01 to 100
CC#Cc1c(C[C@@H](N)CO)oc2c(NCc3cccs3)cc(Cl)nc12 [Compound 34, (R)-2-amino-3-[5-chloro-3-(1-propynyl)-7-thenylamino-1-oxa-4-aza-2-indenyl]-1-propanol]	0.01 to 100
[2H]C([2H])([2H])OC[C@H](N)Cc1oc2c(NCc3cccs3)cc(Cl)nc2c1C#CC [Compound 35, 2-[2-amino-3-(^2H3)methoxypropyl]-5-chloro-3-(1-propynyl)-7-thenylamino-1-oxa-4-azaindene]	0.01 to 100
[2H]C([2H])([2H])OC[C@H](N)Cc1oc2c(NC([2H])([2H])c3cccs3)cc(Cl)nc2c1C#CC [Compound 40, 2-[(R)-2-amino-3-(^2H3)methoxypropyl]-5-chloro-3-(1-propynyl)-7-{[(2-thienyl)(^2H2)methyl]amino}-1-oxa-4-azaindene]	0.01 to 100
[2H]C([2H])([2H])OCC[C@H](N)Cc1oc2c(NCc3cccs3)cc(Cl)nc2c1C#CC [Compound 42, 2-[(S)-2-amino-4-(^2H3)methoxybutyl]-5-chloro-3-(1-propynyl)-7-thenylamino-1-oxa-4-azaindene]	0.01 to 100
[2H]C([2H])(c1oc2c(NCc3cccs3)cc(Cl)nc2c1C#CC)[C@H](C)N [Compound 43, 2-[(S)-2-amino(1,1-^2H2)propyl]-5-chloro-3-(1-propynyl)-7-thenylamino-1-oxa-4-azaindene]	0.01 to 100
[2H]C([2H])(c1oc2c(NCc3cccs3)cc(Cl)nc2c1C#CC)[C@@H](N)CF [Compound 45, 2-[(R)-2-amino-3-fluoro(1,1- ^2H2)propyl]-5-chloro-3-(1-propynyl)-7-thenylamino-1-oxa-4-azaindene]	0.01 to 100
[2H]C([2H])([2H])OC([2H])([2H])[C@H](N)Cc1oc2c(NCc3cccs3)cc(Cl)nc2c1C#CC [Compound 47, 2-[(R)-2-amino-3-(^2H3)methoxy(3,3-^2H2)propyl]-5-chloro-3-(1-propynyl)-7-thenylamino-1-oxa-4-azaindene]	0.01 to 100
[2H]C([2H])(OC(F)F)[C@H](N)Cc1oc2c(NCc3cccs3)cc(Cl)nc2c1C#CC [Compound 48, 2-[(R)-2-amino-3-difluoromethoxy(3,3-^2H2)propyl]-5-chloro-3-(1-propynyl)-7-thenylamino-1-oxa-4-azaindene]	0.01 to 100
